Measurements published in patent publication US20120095055A1, “HEXAHYDROCYCLOPENTYL[f]INDAZOLE 5-HYDROXYMETHYL ETHANOLS AND DERIVATIVES THEREOF AS SELECTIVE GLUCOCORTICOID RECEPTOR MODULATORS” (Merck Sharp & Dohme, Corp., priority 2009, published 2012).

Molecular target: T1, human GR (Homo sapiens, UniProt P04150)
T1 construct: naturally expresses the human GR; endogenous in cells
T1 sequence (P04150 1-777): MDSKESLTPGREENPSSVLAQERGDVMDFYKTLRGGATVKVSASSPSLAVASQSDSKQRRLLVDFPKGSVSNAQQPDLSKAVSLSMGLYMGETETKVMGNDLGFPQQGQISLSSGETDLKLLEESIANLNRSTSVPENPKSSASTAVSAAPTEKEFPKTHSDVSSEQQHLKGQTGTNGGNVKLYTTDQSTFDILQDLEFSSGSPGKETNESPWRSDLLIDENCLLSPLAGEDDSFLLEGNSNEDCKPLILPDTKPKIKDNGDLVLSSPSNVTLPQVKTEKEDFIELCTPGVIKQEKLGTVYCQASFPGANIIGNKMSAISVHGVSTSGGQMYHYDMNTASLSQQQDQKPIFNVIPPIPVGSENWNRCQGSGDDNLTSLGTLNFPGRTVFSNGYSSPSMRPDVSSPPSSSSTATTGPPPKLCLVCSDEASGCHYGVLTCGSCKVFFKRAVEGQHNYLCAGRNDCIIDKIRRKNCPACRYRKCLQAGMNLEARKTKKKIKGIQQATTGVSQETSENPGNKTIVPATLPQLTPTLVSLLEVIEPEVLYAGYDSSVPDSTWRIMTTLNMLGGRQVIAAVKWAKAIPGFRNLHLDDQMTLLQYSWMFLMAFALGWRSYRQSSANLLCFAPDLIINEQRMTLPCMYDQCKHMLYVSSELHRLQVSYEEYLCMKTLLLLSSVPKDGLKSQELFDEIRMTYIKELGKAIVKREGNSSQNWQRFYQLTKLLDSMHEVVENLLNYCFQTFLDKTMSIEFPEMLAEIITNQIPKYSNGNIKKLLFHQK
Experiment: Transrepression Assay (GITAR), TNFα-β-lactamase reporter in U937 cells
Format: cell-based
Details: for EC50: inflection point (IP), TNFα promoter β-lactamase reporter, PMA/LPS; for Emax: U-937, activity repressed by 100 nM dexamethasone set as 100%
Description: This assay assesses the ability of test compounds to control transcription from the TNFα-β-lactamase reporter gene in U937 cells, a human myelomonocytic leukemia cell line that naturally expresses the human GR. The assay measures compound dependent-repression of the TNFa promoter linked to a reporter gene.
The human U937 cells that had been stablely transfected with the TNF-α promoter driving β-lactamase are used for this assay. U937 cells contain an endogenous glucocorticoid receptor (GR). Cells are maintained in RPMI 1640 Growth medium (Gibco Cat#11875-093) containing 25 mM HEPES, 10% FBS, 2 mM L-Glutamine, 1 mM Sodium pyruvate, 25 μg/ml Gentamicin (Gibco Cat#15710-064), 1:1000 2-Mercaptoethanol (Gibco Cat#21985-023) and 0.8 mg/ml G418 (Gibco Cat#10131-027). The density of the cells in the flask needs to be about 1×106-3×10^6/ml at the time of harvest. Usually, the cells are split to 1.2˜1.4×10^5/ml (1:10) 3 days prior to the assay. 50,000 cells/well are plated in 96 well black-walled plates the day of assay. Test compounds are added 10 μL/well, and cells are incubated at 37° C. for 30˜45 min. For assaying compounds, first dilute 1:10 in DMSO to make 1 mM, then further dilute 1:100 in medium to make 10× stock prior to adding to the cells. Add 50 ng/ml PMA (Sigma, cat# P8139) 10 μL/well to a final concentration 5 ng/ml, and 1 μg/ml LPS (Sigma, cat# L4130) 10 μL/well to a final concentration 100 ng/ml. Incubate cells at 37° C. overnight for ˜18 hr. PMA is stored frozen as 100 μg/ml stock in DMSO. Dilute 1:10 in DMSO for a working stock of 10 μg/ml and store at −20 C. For assaying, dilute the 10 μg/ml working stock 1:200 in medium to make a 10× solution (50 ng/ml). Store frozen LPS at 1 mg/ml in PBS, dilute 1:1000 in medium to make 10× (1 μg/ml) for the assay. Add 6× loading buffer (CCF2-AM) 20 μL/well, and incubate at room temperature for 70˜90 min. […] The activity repressed by 100 nM dexamethasone alone is set as 100% activity.

Row | Compound | Transrepression U937 Cells GITAR Emax (%) (activity repressed by 100 nM dexamethasone set as 100%) | EC50 [nM] | Emax [%]
1 | C[C@]12Cc3cnn(-c4ccc(F)cc4)c3C=C1CC[C@@]2(CO)CC1OC(=O)c2ccccc21 (single isomer, unassigned) [Example 12b] | 93.0 | 34.9 | –
2 | C[C@]12Cc3cnn(-c4cccc(F)c4)c3C=C1CC[C@@]2(CO)CC(O)c1ccccn1 (single isomer, unassigned) [Example 19a] | – | 32.7 | 91.2
3 | C[C@]12Cc3cnn(-c4ccc(F)cc4)c3C=C1CC[C@@]2(CO)CC(O)c1cccnc1 (single isomer, unassigned) [Example 15a] | – | 56.3 | 87.7
4 | C[C@]12Cc3cnn(-c4ccc(F)cc4)c3C=C1CC[C@@]2(CO)CC(O)c1cc(F)cc(Cl)c1 (single isomer, unassigned) [Example 6a] | – | 35.7 | 104
5 | C[C@]12Cc3cnn(-c4ccc(F)cc4)c3C=C1CC[C@@]2(CO)CC(O)c1ccccc1 (single isomer, unassigned) [Example 13a] | – | 3.9 | 91
6 | C[C@]12Cc3cnn(-c4ccc(F)cc4)c3C=C1CC[C@@]2(CO)CC(O)c1ccccc1F (stereo partly drawn) [Example 4, 1-(2-fluorophenyl)-2-[(4αS,5R)-1-(4-fluorophenyl)-5-(hydroxymethyl)-4α-methyl-1,4,4α,5,6,7-hexahydrocyclopenta[f]indazol-5-yl]ethanol] | – | 28.2 | 104
